Here are results for 12 compounds from patent US11006595B2, “Rice cultivar designated ‘CL153’” (Board of Supervisors of Louisiana State University and …, priority 2016, dated 2021).

Structures are written as SMILES.

The test system of one experiment is ‘CL153’ rice plant. Put plainly: Herbicide tolerance and susceptibility of rice cultivar 'CL153'. In kind it is in vivo, Oryza sativa. The following applies: at levels of the herbicide that would normally inhibit the growth of a rice plant; partly actual observations, partly assumptions based on common ancestry with ‘CL161’. From the text:
Among others, the herbicide tolerance and susceptibility characteristics of ‘CL153’ include or are expected to include the following.
For the compound `CCOC(=O)c1ccccc1S(=O)(=O)NC(=O)Nc1nc(Cl)cc(OC)n1` [chlorimuron ethyl], the “resistance or sensitivity of ‘CL153’ to the herbicide” value (“resistance or sensitivity of ‘CL153’” for short) is listed as “sensitive”. Still for that read-out and setting: the result for `COCc1cnc(C2=NC(C)(C(C)C)C(=O)N2)c(C(=O)O)c1` (centres unmarked) [imazamox] reads “resistant”; that for `Cc1cnc(C2=NC(=O)C(C)(C(C)C)N2)c(C(=O)O)c1` (centres unmarked) [imazapic], “resistant”; that for `CC(C)C1(C)N=C(c2ncccc2C(=O)O)NC1=O` (centres unmarked) [imazapyr], “resistant”. Still for that read-out and setting: the result for `CC(C)C1(C)N=C(c2nc3ccccc3cc2C(=O)O)NC1=O` (centres unmarked) [imazaquin] reads “resistant”; that for `CCc1cnc(C2=NC(C)(C(C)C)C(=O)N2)c(C(=O)O)c1` (centres unmarked) [imazethapyr], “resistant”; that for `COC(=O)c1ccccc1S(=O)(=O)NC(=O)Nc1nc(C)nc(OC)n1` [metsulfuron methyl], “resistant”. In the case of `COc1cc(OC)nc(NC(=O)NS(=O)(=O)c2ncccc2C(=O)N(C)C)n1` [nicosulfuron], the “resistance or sensitivity of ‘CL153’” value is recorded as “resistant”.

As for `CCS(=O)(=O)c1cccnc1S(=O)(=O)NC(=O)Nc1nc(OC)cc(OC)n1` [rimsulfuron], the “resistance or sensitivity of ‘CL153’” value is given as “sensitive”. For the compound `COC(=O)c1ccccc1S(=O)(=O)NC(=O)Nc1nc(C)cc(C)n1` [sulfometuron methyl], the “resistance or sensitivity of ‘CL153’” value is listed as “sensitive”. The same measure, in the same setting: the result for `COC(=O)c1sccc1S(=O)(=O)NC(=O)Nc1nc(C)nc(OC)n1` [thifensulfuron methyl] reads “resistant”. The same measure, in the same setting: the value for `COC(=O)c1ccccc1S(=O)(=O)NC(=O)N(C)c1nc(C)nc(OC)n1` [tribenuron methyl] was “resistant”.

The same experiment, now with this note: general statement; profile essentially identical to ‘CL161’.
Take `COCc1cnc(C2=NC(C)(C(C)C)C(=O)N2)c(C(=O)O)c1` (centres unmarked) [imazamox]: the “resistance of ‘CL153’ to imidazolinone herbicides” value was “highly resistant”. Same read-out and setting: the result for `CCc1cnc(C2=NC(C)(C(C)C)C(=O)N2)c(C(=O)O)c1` (centres unmarked) [imazethapyr] reads “highly resistant”.
